The values that follow come from patent US20230102836A1, “Amoebicidal Compositions for Contact Lens Solutions” (University of the West of Scotland, priority 2019, published 2023).

For assay [1], the system named is A. castellanii trophozoites. Nature of the assay: Cytotoxicity assay on trophozoites (resazurin / alamarBlue). It is filed as cell-based, Acanthamoeba castellanii ATCC 50370. The settings on record: Acanthamoeba castellanii; Table 2; read-out: IC50 A. castellanii trophozoites.
Assay [2] relates to A. castellanii trophozoites. Nature of the assay: Combined assay with fixed QAC12 (alamarBlue). It is filed as cell-based, Acanthamoeba castellanii ATCC 50370. To be noted: Acanthamoeba castellanii, 96 h, 96 h at 25° C. As to the method:
Acanthamoeba trophozoites (10^5 cells/ml. n=5/treatment) treated with 100 μg/ml doubly diluted to 0.06 μg/ml of QAC18 (a,b) or APC16 (c,d) for 96 h at 25° C. […] Similarly. APC16 alone at the same concentration (closed circle, FIG. 6C, FIG. 6D) in combination with QAC12 at 18.75 μg/ml (open squares, d) QAC12 at […] (open squares, FIG. 6C). Data are mean absorbance at 595 nm t SD; n=4 independent experiments performed in triplicates. IC50s were not statistically significant between QAC12 at both concentrations and QAC16 (p>0.05, FIG. 6A, FIG. 6B) but significant with APC16 (p<0.05, FIG. 6C, FIG. 6D).
For the combined assay, similar concentrations of QAC18 and APC16 were prepared and 18.75 μg/ml and 37.5 μg/ml of QAC12 added (to a final volume of 100 μl) were added to 10^5 cells/mi in a 96-well plate and later incubated at 25° C. for a duration determined by the experimental protocol. Resazurin (7-Hydroxy-31-phenoxazin-3-one 10-oxide; 5 mg/ml; McBride J et al (2005) J. Clin. Microbiol.; 43: 629-634) and trypan blue (0.4 μg/ml; Mafra C S P et al (2013) Investig. Ophthalmol. Vis. Si.; 54: 6363-6372) were then added to trophozoites and cysts respectively after being exposed to the compounds and the cell viability estimated microscopically and from changes in absorbance (at 595 nm and 570 nm) respectively.

Assay [3] deals with Acanthamoeba trophozoites. The experiment in a line: Checkerboard dilution QAC-APC interaction (Bliss model). To be noted: APC12, APC14, APC16; 96 h at 25° C. Type of assay: cell-based, Acanthamoeba castellanii. How it is done:
Acanthamoeba trophozoites (10^5 cells/ml. n=5/treatment) treated with 100 μg/ml doubly diluted to 0.06 μg/ml of QAC12 (FIG. 7A), […], QAC16 (FIG. 7C) and QAC18 (FIG. 7D) with APC 12 (i), APCI 4 (ii) and APC16 (iii) for 96 h at 25° C. Cell viability estimated by the alamarBlue assay the dose-response curves used to produce a surface analysis (right panel) and the interaction profile determined using the Bliss model. The degree of interaction characterised by the QCScore heuristic score are produced as heat map (left panel). The colour of each cell in the heatmap and the surface analysis represents the assay response at that dose combination; red to orange, antagonistic: yellow to green, additive and blue, synergistic.
The change in potency between QAC and APC prompted us to used the checkerboard dilution method to identify synergistic interactions (FIG. 7A-D). Three interaction profiles, antagonistic (orange to red), additive (yellow to green) and synergistic (blue) were observed, with optimal synergistic interactions deemed to be significant occurring between 20-38%; (FIG. 7).

For a further assay, the system named is A. castellanii cysts. Nature of the assay: Extrusion of cytoplasmic constituents (DNA, protein) from cysts. It is filed as cell-based, Acanthamoeba castellanii ATCC 50370. From the text:
FIGS. 9A-9B show the extrusion of cytoplasmic constituents of A. castellani cysts to the external milieu after QAC treatment. DNA (FIG. 9A) and Protein (FIG. […] 9A) and at 280 nm (FIG. 9B) respectively. Data is mean absorbance at 260 nm (FIG. 9A) and 280 nm (FIG. 9B)±SD respectively: n=4 independent experiments performed in triplicates.
Protein concentration in cell extract and media of QAC-treated and untreated A. castellanii trophozoites was estimated at 280 nm using the Nanodrop® ND-1000 and expressed as ng/μl protein. DNA concentrations were estimated similarly at 260 nm and expressed as ng/μl.

Assay [4] relates to A. castellanii trophozoites. Nature of the assay: DNA-agarose gel electrophoresis of gDNA of treated trophozoites. To be noted: 18.75 μg/ml after 96 h. Type of assay: cell-based, Acanthamoeba castellanii. How it is done:
Genomic deoxynucleic acids (gDNA) from 10^8 A. castellanii trophozoites (treated with and without QAC) were extracted from cells harvested by centrifugation (850×g, 10 min), lysed with UNSET buffer (8M urea, 150 μM NaCl, 2% SDS, […] ethylenediaminetetraacetic acid (EDTA), […] Tris-HCl, pH 7.5) and the DNA extracted with phenol-chloroform (1:1 v/v). The biphasic suspension with DNA enriched on the […] was centrifuged (12,000×g for 15 min, 4° C.) for clear separation and transferred to a new microcentrifuge tube. The DNA was precipitated with cold ethanol (100%, v/v) and 0.3M sodium acetate, washed twice with 70% (v/v) ethanol (12,000×g for 10 min, 4° C.), air dried and resuspended in distilled water.

Each structure is given as a SMILES string. “And” between values parts separate entries of the source, which are not always exact repeats. Equal values may be shown once.

On to `CCCCCCCCCCCCCCCCCC[N+](C)(C)C.[Br-]` [QAC18, octadecyltrimethyl ammonium bromide], for which the half-inhibitory concentration (IC50) in assay [1] was 1.06 µg/mL and 3 µM; in assay [2] (QAC12 fixed at 18.75 μg/ml, read-out: Estimated IC50 of QAC18 in combination with QAC12), 6.7 µg/mL; in assay [2] (QAC12 fixed at 37.5 μg/ml, read-out: Estimated IC50 of QAC18 in combination with QAC12), 6.9 µg/mL; in assay [2] (without QAC12, read-out: Estimated IC50 of QAC18 alone) it was 6.1 µg/mL. In addition, the “Interaction profile of QAC combined with APCs” value in assay [3] was “No significant synergy”. In addition, in the assay on A. castellanii cysts (after 1 h (FIG. 9A)), the “Increase in DNA in the external milieu of cysts” value is reported as 40%. The “Increase in proteins in the external milieu of cysts” value in the assay with A. castellanii cysts (after 1 h (FIG. 9B)) is listed as 50%. The “Fragmented DNA profile that depicts death via apoptosis” value in assay [4] is “not observed”.
